pIC50: −log10 of the molar value. Active and inactive are the calls of the source. The rule behind the calls is not given here.
Experiments:
[1] = molecular target: T1, Androgen receptor (Homo sapiens, UniProt P10275); experiment: (§1) Displacement of radiolabeled mibolerone from human androgen receptor by filter paper assay
T1 sequence (P10275 whole entry): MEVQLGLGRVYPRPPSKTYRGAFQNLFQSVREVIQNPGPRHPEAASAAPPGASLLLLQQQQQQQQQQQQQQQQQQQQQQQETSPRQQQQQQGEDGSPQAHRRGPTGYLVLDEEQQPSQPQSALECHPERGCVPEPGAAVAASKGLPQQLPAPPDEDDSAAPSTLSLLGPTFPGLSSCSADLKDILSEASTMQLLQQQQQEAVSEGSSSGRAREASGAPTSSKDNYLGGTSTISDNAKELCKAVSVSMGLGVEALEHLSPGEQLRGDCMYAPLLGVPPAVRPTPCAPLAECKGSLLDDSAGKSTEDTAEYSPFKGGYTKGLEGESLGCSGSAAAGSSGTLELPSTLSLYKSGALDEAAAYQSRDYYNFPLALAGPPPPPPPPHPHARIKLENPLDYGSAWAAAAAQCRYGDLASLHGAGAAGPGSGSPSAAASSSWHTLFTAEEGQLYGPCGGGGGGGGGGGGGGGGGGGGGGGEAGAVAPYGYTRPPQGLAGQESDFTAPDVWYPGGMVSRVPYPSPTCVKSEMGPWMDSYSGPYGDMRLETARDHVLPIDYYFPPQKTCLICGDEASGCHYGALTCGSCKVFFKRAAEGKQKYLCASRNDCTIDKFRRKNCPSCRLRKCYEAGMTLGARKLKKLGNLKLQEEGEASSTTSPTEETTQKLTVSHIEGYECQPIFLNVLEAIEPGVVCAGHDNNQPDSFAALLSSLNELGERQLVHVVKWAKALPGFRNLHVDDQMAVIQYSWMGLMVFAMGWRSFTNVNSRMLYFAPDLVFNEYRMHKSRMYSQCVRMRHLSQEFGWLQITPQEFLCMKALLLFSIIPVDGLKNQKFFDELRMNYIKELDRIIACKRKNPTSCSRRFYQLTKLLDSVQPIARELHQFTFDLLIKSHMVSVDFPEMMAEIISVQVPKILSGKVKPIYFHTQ

[2] = molecular target: T2, Retinoid X receptor (Homo sapiens, UniProt P28702+P48443+P19793); experiment: (§2) Displacement of radiolabeled 9-cis retinoic acid from human RXR by scintillation proximity assay; format: protein assay
T2 sequence (P28702 whole entry): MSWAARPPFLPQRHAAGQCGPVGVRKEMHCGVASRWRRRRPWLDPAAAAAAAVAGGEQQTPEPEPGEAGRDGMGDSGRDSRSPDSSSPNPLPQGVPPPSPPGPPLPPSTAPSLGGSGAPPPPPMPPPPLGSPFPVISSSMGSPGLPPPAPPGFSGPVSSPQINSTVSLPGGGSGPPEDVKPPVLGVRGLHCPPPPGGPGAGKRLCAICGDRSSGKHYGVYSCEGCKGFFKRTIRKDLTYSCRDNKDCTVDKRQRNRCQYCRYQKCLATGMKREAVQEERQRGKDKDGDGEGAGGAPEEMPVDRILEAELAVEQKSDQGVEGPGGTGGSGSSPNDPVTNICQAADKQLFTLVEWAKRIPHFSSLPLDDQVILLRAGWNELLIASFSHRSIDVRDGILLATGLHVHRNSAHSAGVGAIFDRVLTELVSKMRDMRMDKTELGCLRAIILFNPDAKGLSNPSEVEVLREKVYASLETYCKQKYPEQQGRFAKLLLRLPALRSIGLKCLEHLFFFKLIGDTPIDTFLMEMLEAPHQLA
T2 sequence (P48443 whole entry): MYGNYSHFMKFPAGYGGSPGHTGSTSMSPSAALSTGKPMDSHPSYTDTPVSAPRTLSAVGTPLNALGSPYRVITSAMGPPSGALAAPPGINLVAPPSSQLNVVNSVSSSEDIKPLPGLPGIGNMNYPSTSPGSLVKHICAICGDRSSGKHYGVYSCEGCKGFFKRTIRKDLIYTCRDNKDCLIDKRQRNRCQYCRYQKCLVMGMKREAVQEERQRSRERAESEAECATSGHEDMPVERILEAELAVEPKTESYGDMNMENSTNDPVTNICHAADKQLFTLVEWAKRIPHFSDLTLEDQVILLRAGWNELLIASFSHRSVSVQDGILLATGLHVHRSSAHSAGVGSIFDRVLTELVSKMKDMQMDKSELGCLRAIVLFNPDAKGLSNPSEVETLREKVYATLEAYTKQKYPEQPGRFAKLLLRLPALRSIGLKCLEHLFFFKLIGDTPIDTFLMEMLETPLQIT
T2 sequence (P19793 whole entry): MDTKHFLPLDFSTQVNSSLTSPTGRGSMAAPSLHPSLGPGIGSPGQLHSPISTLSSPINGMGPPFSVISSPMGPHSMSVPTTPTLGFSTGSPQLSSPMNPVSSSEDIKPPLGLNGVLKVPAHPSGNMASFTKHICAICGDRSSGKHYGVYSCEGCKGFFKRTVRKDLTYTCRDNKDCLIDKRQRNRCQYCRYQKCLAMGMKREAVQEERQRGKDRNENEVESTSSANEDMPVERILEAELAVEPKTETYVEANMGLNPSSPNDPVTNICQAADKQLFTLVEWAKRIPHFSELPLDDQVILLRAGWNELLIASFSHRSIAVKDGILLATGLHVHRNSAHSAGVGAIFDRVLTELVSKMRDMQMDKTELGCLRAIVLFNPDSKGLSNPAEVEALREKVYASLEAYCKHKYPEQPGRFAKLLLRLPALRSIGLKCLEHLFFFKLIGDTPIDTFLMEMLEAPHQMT

[3] = Clearance in C57 mouse at 1 mg/kg, iv and 10 mg/kg, po; format: ADME, organism-based; conditions: in vivo
[4] = Half life in C57 mouse at 1 mg/kg, iv; format: ADME, organism-based; design: dose 1 mg/kg, route intravenous; conditions: in vivo
[5] = Cmax in male C57 mice after 10 mg/kg oral dose; format: ADME, organism-based; design: dose 10 mg/kg, route oral; conditions: C57, mouse, in vivo
[6] = test system: Mus musculus; experiment: Increase in CYP7A1 gene expression in LDL receptor knockout C57BL/6 mouse liver at 15 mg/kg administered with Western diet; format: functional
[7] = Tmax in C57 mouse at 1 mg/kg, iv and 10 mg/kg, po; format: ADME, organism-based; conditions: in vivo
[8] = Bioavailability in C57 mouse at 1 mg/kg, iv and 10 mg/kg, po; format: ADME, organism-based; conditions: in vivo
[9] = test system: Syrian golden hamster; experiment: Induction of FAS gene expression in golden Syrian hamster liver at 100 mg/kg administered with chow diet for 7 days measured after 2 hrs of final dose by real time PCR; format: functional, organism-based; design: dose 100 mg/kg; conditions: Mesocricetus auratus
[10] = Volume of distribution at steady state in C57 mouse at 1 mg/kg, iv and 10 mg/kg, po; format: ADME, organism-based; conditions: in vivo, read-out: Vdss
[11] = molecular target: T3, Androgen receptor (Homo sapiens) (UniProt P10275); experiment: as §1
T3 sequence (whole entry): T1 sequence (P10275 whole entry)

[12] = molecular target: Retinoid X receptor (Homo sapiens) (UniProt P28702+P48443+P19793); experiment: as §2; format: protein assay
[13] = test system: Mus musculus; experiment: Upregulation of ABCA1 gene expression in LDL receptor knockout C57BL/6 mouse duodenum at 15 mg/kg administered with Western diet; format: functional; conditions: route oral

pIC50 [1] | IC50 [2] [µM] | clearance [3] [mL/min/kg] | half-life [4] [min] | Cmax [5] [ng/mL] | Tmax [7] [min] | bioavailability [8] [%] | Vd [10] [L/kg] | Activity [11] | Activity [12] | SMILES | fold change (FC) [6] | Activity [9] | fold change (FC) [13]
5.64 | > 10 |  |  |  |  |  |  |  |  | Fc1ccc(-c2c3cccc(C(F)(F)F)c3nn2Cc2ccc(F)cc2Cl)cc1 [LXR-623] |  |  | 
 |  | 57 | 474 | 633 | 30 | 106 | 30.3 | inactive | inactive | Fc1ccc(-c2c3cccc(C(F)(F)F)c3nn2Cc2ccccc2F)cc1 | 4 | inactive | 2.3
